Patent US9364474B2, “Method for treatment of neurologic dysfunction” (MedDEV, Inc., priority 2004, dated 2016)

Columns and labels:
[1] = tested on: patient diagnosed with chronic schizophrenia; assay: Case example: patient with chronic schizophrenia, transdermal reserpine spray (with prior medication history); format: in vivo, human; details: prior treatment
patient with Autism = assay: Case examples: patients with Autism (ASD), transdermal reserpine (with prior medication history); format: in vivo, human; details: for success of prior treatments: ASD Example Three: person, prior treatments tried
Description: The treatment composition is suitably applied in a single daily dose, e.g., 0.01 mg of the MAO-A agonist in 0.05 ml of spray solution applied once every morning.
Prior to administration of the present invention (transdermal reserpine), the patient's parents were provided with an informed consent documenting the potential risks, benefits and alternatives to this treatment. The patient was started on a dose of Reserpine at a 4× dilution resulting in a total dose of 0.01 mg. […] They were also given approximately 1400 mg of Calcium every morning.

MAO-A = details: Egashira et al (1996); Gnerre et al (2001); cited from earlier work
MAO-B = target: T1, MAO-B (Homo sapiens, UniProt P27338); details: Egashira et al (1996); Gnerre et al (2001); cited from earlier work
T1 sequence (P27338 1-520): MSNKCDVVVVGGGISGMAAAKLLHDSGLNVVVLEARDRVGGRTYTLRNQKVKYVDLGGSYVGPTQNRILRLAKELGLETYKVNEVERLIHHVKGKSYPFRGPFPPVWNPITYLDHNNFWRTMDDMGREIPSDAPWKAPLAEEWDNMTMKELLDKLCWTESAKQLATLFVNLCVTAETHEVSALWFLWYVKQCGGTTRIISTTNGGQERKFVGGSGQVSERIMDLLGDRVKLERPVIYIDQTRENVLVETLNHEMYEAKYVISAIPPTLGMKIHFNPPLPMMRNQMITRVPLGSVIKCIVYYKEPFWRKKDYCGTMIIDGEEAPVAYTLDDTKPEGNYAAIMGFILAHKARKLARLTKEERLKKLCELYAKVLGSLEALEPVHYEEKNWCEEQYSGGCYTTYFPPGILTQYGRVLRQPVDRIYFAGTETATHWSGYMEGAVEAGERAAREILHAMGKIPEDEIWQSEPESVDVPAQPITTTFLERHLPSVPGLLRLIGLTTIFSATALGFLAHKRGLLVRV

[2] = tested on: patient suffering from depression; details: Depression Example Four; taking nortriptyline
Description: The treatment composition is suitably applied in a single daily dose, e.g., 0.01 mg of the MAO-A agonist in 0.05 ml of transdermal cream applied once every morning. Caffeine may also be included in the composition to compensate for the anti-hypertensive effect of the preferred reserpine; the caffeine may suitably be included in an amount from about 50-100 mg/dose.
Treatment was in the form of 0.01 mg of reserpine per 0.05 ml of transdermal cream, applied transdermally once a day in the morning.
The treatment consisted of 0.01 mg of reserpine per 0.05 ml of cream, applied transdermally by rubbing the cream into the skin once a day in the morning.
The treatment consisted of 0.01 mg of the reserpine per 0.05 ml of cream, applied transdermally by rubbing the cream into the skin once a day in the morning.
The patient discontinued the use of nortriptyline and the same day started the treatment of the present invention, using 0.01 mg of the reserpine per 0.05 ml cream, applied transdermally by rubbing the cream into the skin once a day in the morning.
The patient then started the treatment of the present invention, using 0.01 mg of the MAO-A activity stimulator (reserpine) per 0.05 ml cream, applied transdermally by rubbing the cream into the skin once a day in the morning.

aldehyde dehydrogenase = details: literature; cited from earlier work
[3] = tested on: ethanol-preferring laboratory hamsters; details: cited from earlier work

For `CCCC(CCC)C(=O)O` [depakote], the “side effects of prior medication” value ([1]; Schizophrenia Example One: person, discontinued) was “extremely lethargic and obese” and the “success of prior treatments” value (patient with Autism) was “none to minimal success”.
For `CN(C)CCC=C1c2ccccc2COc2ccccc21` [doxepine], the “activity towards MAO-A” value (MAO-A) is listed as “inhibitory activity” and the “activity towards MAO-B relative to MAO-A” value (MAO-B) is listed as “clearly more potent selectivity for MAO-B”.
In the case of `CN(C)CCCN1c2ccccc2CCc2ccc(Cl)cc21` [clomipramine], the “activity towards MAO-A” value (MAO-A) is listed as “inhibitory activity” and the “activity towards MAO-B relative to MAO-A” value (MAO-B) is listed as “clearly more potent selectivity for MAO-B”.
With `COc1ccc2[nH]cc(CCNC(C)=O)c2c1` [melatonin] the “success of prior treatments” value (patient with Autism) was “none to minimal success”.
For `CCOc1ccccc1OCC1CNCCO1` (stereo not drawn) [viloxazine], the “activity towards MAO-A” value (MAO-A) is given as “inhibitory activity” and the “activity towards MAO-B relative to MAO-A” value (MAO-B) is given as “clearly more potent selectivity for MAO-B”.
For `CN(C)CCC=C1c2ccccc2CCc2ccccc21` [amitriptyline], the “activity towards MAO-A” value (MAO-A) is listed as “inhibitory activity” and the “activity towards MAO-B relative to MAO-A” value (MAO-B) is listed as “clearly more potent selectivity for MAO-B”.
For `CNCCC=C1c2ccccc2CCc2ccccc21` [nortriptyline], the “activity towards MAO-A” value (MAO-A) is listed as “inhibitory activity”, the “activity towards MAO-B relative to MAO-A” value (MAO-B) is listed as “clearly more potent selectivity for MAO-B” and the “symptoms persisting despite prior medication” value [2] is listed as “Decreased energy, fatigue • Early morning awakening”.
In the case of `O=c1c(-c2ccc(O)cc2)coc2cc(O[C@@H]3O[C@H](CO)[C@@H](O)[C@H](O)[C@H]3O)ccc12` [daidzin], the “effect on aldehyde dehydrogenase” value (aldehyde dehydrogenase) is listed as “inhibits aldehyde dehydrogenase” and the “effect on ethanol intake” value [3] is listed as “suppress ethanol intake”.
In the case of `CN1Cc2c(N)cccc2C(c2ccccc2)C1` (stereo not drawn) [nomifensine], the “activity towards MAO-A” value (MAO-A) is listed as “inhibitory activity” and the “activity towards MAO-B relative to MAO-A” value (MAO-B) is listed as “clearly more potent selectivity for MAO-B”.
For `CN(C)CCCN1c2ccccc2CCc2ccccc21` [imipramine], the “activity towards MAO-A” value (MAO-A) is given as “inhibitory activity” and the “activity towards MAO-B relative to MAO-A” value (MAO-B) is given as “clearly more potent selectivity for MAO-B”.
In the case of `O=C1CCc2ccc(OCCCCN3CCN(c4cccc(Cl)c4Cl)CC3)cc2N1` [Abilify], the “tolerability and efficacy of prior medication” value ([1]; Schizophrenia Example One) is reported as “tolerated better but still had many symptoms unresolved”.
In the case of `CNCCCC12CCC(c3ccccc31)c1ccccc12` [maprotiline], the “activity towards MAO-A” value (MAO-A) is given as “inhibitory activity” and the “activity towards MAO-B relative to MAO-A” value (MAO-B) is given as “clearly more potent selectivity for MAO-B”.
In the case of `O=C1CC[C@@]2(O)[C@H]3Cc4ccc(O)c5c4[C@@]2(CCN3CC2CC2)[C@H]1O5` [naltrexone], the “success of prior treatments” value (patient with Autism) is reported as “none to minimal success”.
For `CNCCC(Oc1ccc(C(F)(F)F)cc1)c1ccccc1` (stereo not drawn) [fluoxetine], the “activity towards MAO-A” value (MAO-A) is listed as “inhibitory activity” and the “activity towards MAO-B relative to MAO-A” value (MAO-B) is listed as “clearly more potent selectivity for MAO-B”.
In the case of `CN(C)C/C=C(/c1ccc(Br)cc1)c1cccnc1` [zimeldine], the “activity towards MAO-A” value (MAO-A) is listed as “inhibitory activity” and the “activity towards MAO-B relative to MAO-A” value (MAO-B) is listed as “clearly more potent selectivity for MAO-B”.
In the case of `OCCOCCN1CCN(C2=Nc3ccccc3Sc3ccccc32)CC1` [Seroquel], the “success of prior treatments” value (patient with Autism) is reported as “none to minimal success”.
In the case of `COCCCC/C(=N\OCCN)c1ccc(C(F)(F)F)cc1` [fluvoxamine], the “activity towards MAO-A” value (MAO-A) is listed as “inhibitory activity” and the “activity towards MAO-B relative to MAO-A” value (MAO-B) is listed as “clearly more potent selectivity for MAO-B”.
With `COC(=O)C(c1ccccc1)C1CCCCN1` (stereo not drawn) [Ritalin] the “success of prior treatments” value (patient with Autism) was “none to minimal success”.
With `OCCOCCN1CCN(C2=Nc3ccccc3Sc3ccccc32)CC1` [quetiapine] the “functional benefit of prior medication” value (patient with Autism; ASD Example One, prior trials at therapeutic doses, only quetiapine of six medications) was “functional improvements”.
